According to article PMC10825133, “Repurposing proteasome inhibitors for improved treatment of triple-negative breast cancer” (Cell Death Discovery, 2024):
Like-named read-outs stand apart in the source and are kept apart here.

Tests used:
Assay in all cases: Resazurin-based cell viability assay, monotherapy drug screen
Parameters in all cases: species or system human; AUC: scale not given here
BT-549 cells = conditions: BT-549; for AUC: area under the dose response curve, 24 h; for GRmax: drug efficacy at highest tested dose (<0 cytotoxic, 0 cytostatic, >0 partial growth inhibition)
Procedure, shortened: (§1)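 Cells were seeded at the highest density (tested 1000-16000 cells/well) giving linear growth between days 1 and 3, keeping them in exponential phase over the ~52 h experiment. Viability was read after 4 h at 37 °C with 0.2 mg/ml resazurin added at 10% of medium volume; ex 560/em 615 nm.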

HCC1806 cells = conditions: HCC1806; for AUC: area under the dose response curve, 24 h; for GRmax: drug efficacy at highest tested dose (<0 cytotoxic, 0 cytostatic, >0 partial growth inhibition); for IC50: Homo sapiens
Procedure, shortened: as §1

HCC38 cells = conditions: HCC38; for AUC: area under the dose response curve, 24 h; for GRmax: drug efficacy at highest tested dose (<0 cytotoxic, 0 cytostatic, >0 partial growth inhibition); for IC50: Homo sapiens
Procedure, shortened: as §1

HCC70 cells = conditions: HCC70; for AUC: area under the dose response curve, 24 h; for GRmax: drug efficacy at highest tested dose (<0 cytotoxic, 0 cytostatic, >0 partial growth inhibition); for IC50: Homo sapiens
Procedure, shortened: as §1

MCF-10A cells = conditions: for IC50: Homo sapiens; for AUC: area under the dose response curve, 24 h
Procedure, shortened: as §1

MCF-7 cells = conditions: MCF-7; for IC50: Homo sapiens, MCF7, growth rate inhibition concentration at GR(c) = 0.5, 24 h, read-out: GR50 (the source's name); for AUC: area under the dose response curve, 24 h; for GRmax: drug efficacy at highest tested dose (<0 cytotoxic, 0 cytostatic, >0 partial growth inhibition)
Procedure, shortened: as §1

MDA-MB-436 cells = conditions: MDA-MB-436; for IC50: Homo sapiens, growth rate inhibition concentration at GR(c) = 0.5, 24 h, read-out: GR50 (the source's name); for AUC: area under the dose response curve, 24 h; for GRmax: drug efficacy at highest tested dose (<0 cytotoxic, 0 cytostatic, >0 partial growth inhibition)
Procedure, shortened: as §1

MDA-MB-453 cells = conditions: MDA-MB-453; for AUC: area under the dose response curve, 24 h
Procedure, shortened: as §1

MDA-MB-468 cells = conditions: MDA-MB-468; for IC50: Homo sapiens; for AUC: area under the dose response curve, 24 h
Procedure, shortened: as §1

[1] = Homo sapiens, growth rate inhibition concentration at GR(c) = 0.5, 24 h, read-out: GR50 (the source's name)
[2] = 24 h drug treatment, read-out: IC50
[3] = growth rate inhibition concentration at GR(c) = 0.5, 24 h, read-out: GR50 (the source's name)

SMILES | AUC (BT-549 cells) | GRmax (BT-549 cells) | AUC (HCC1806 cells) | GRmax (HCC1806 cells) | IC50 (HCC1806 cells; [3]) [µM] | AUC (HCC38 cells) | GRmax (HCC38 cells) | IC50 (HCC38 cells; [2]) [µM] | IC50 (HCC38 cells; [3]) [µM] | AUC (HCC70 cells) | GRmax (HCC70 cells) | IC50 (HCC70 cells; [3]) [µM] | IC50 (MCF-10A cells; [2]) [µM] | IC50 (MCF-10A cells; [3]) [µM] | AUC (MCF-10A cells) | IC50 (MCF-7 cells) [µM] | AUC (MCF-7 cells) | GRmax (MCF-7 cells) | IC50 (MDA-MB-436 cells) [µM] | AUC (MDA-MB-436 cells) | further results
COC[C@H](NC(=O)c1cnc(C)s1)C(=O)N[C@@H](COC)C(=O)N[C@@H](Cc1ccccc1)C(=O)[C@@]1(C)CO1 [Oprozomib] | 0.81 | 0.38 | 0.85 | 0.42 | 6 | 0.73 | −0.98 | 0.68 | 0.33 | 0.89 | −0.10 | 3.7 | 2 | 0.36 | 0.79 | 0.27 | 0.88 | −0.45 | 0.075 | 0.84 | IC50 (BT-549 cells; [1]): 0.94 µM; IC50 (HCC1806 cells; [2]): 6 µM; IC50 (HCC70 cells; [2]): 7.6 µM; GRmax (MDA-MB-436 cells): −0.93; IC50 (MDA-MB-453 cells; [1]): 3.5 µM; AUC (MDA-MB-453 cells): 0.84; IC50 (MDA-MB-468 cells; [2]): 3.2 µM; IC50 (MDA-MB-468 cells; [3]): 0.39 µM; AUC (MDA-MB-468 cells): 0.76
CC(=O)O[C@H]1C(=O)[C@@]2(C)[C@H]([C@H](OC(=O)c3ccccc3)[C@]3(O)C[C@H](OC(=O)[C@H](O)[C@@H](NC(=O)c4ccccc4)c4ccccc4)C(C)=C1C3(C)C)[C@]1(OC(C)=O)CO[C@@H]1C[C@@H]2O [Paclitaxel] | 0.87 | 0.58 | 0.72 | 0.51 | 0.84 | 0.81 | −0.50 | 7.1 | 0.11 | 0.86 | 0.46 | 0.38 | 0.86 | 0.098 | 0.73 | 0.041 | 0.79 | −0.56 | 0.055 | 0.78 | GRmax (MDA-MB-436 cells): −0.97; AUC (MDA-MB-453 cells): 0.93; IC50 (MDA-MB-468 cells; [3]): 1.4 µM; AUC (MDA-MB-468 cells): 0.81
